Earlier results, collected in publication PMC7395068, “The evolution of strategies to minimise the risk of human drug-induced liver injury (DILI) in drug discovery and development” (Archives of Toxicology, 2020).
Like-named read-outs stand apart in the source and are kept apart here.

Legend:
[1] = cited from earlier work
HepG2 cells [2] = settings: cited from earlier work; for Structural based (HCI), In vitro Assay: HepG2 HCI, ref O'Brien 2006
[3] = cited from earlier work; remark: listed apart in the source
[4] = system: isolated mouse liver mitochondria; settings: cited from earlier work
[5] = system: THLE or HepG2 cells, isolated mitochondria, BSEP; settings: cited from earlier work
HepG2 cells [6] = settings: cited from earlier work
human hepatocytes = settings: cited from earlier work
[7] = system: primary human hepatocytes, NIH3T3 fibroblasts, BSEP, CYP3A4; settings: In vitro Assay; ref Schadt 2015; cited from earlier work
[8] = assignment in O'Brien 2006, ref O'Brien 2006
[9] = In vitro Assay, ref Porceddu 2012
[10] = In vitro Assay, ref Persson 2013

Row | SMILES | DILI +VE (5-8), DILI -VE (-4) ([3]; in vivo) | in vitro data EC2<=1x Cmax [4, 9] | In vivo DILI ([1]; ref Porceddu 2012) | DILI +VE (5-8), DILI -VE (-4) ([3]; ref Chen 2016) | DILI severity category ([3]; ref Chen 2016) | in vitro data EC20<=2uM [4, 9] | also measured
1 | FC(F)(F)C(Cl)Br (stereo not drawn) [halothane] |  |  |  |  |  |  | In vivo DILI [1, 8]: -VE; Structural based (HCI), In vitro Assay (HepG2 cells [2]): +VE
2 | Cc1ccc(NC(=O)c2ccc(CN3CCN(C)CC3)cc2)cc1Nc1nccc(-c2cccnc2)n1 [imatinib] | +VE | +VE |  |  |  |  | In vivo DILI ([1]; in vivo): +VE; DILI severity category ([3]; in vivo): vMost-DILI-Concern
3 | CC(C(=O)O)c1ccc(N2Cc3ccccc3C2=O)cc1 (stereo not drawn) [indoprofen] |  |  |  |  |  |  | In vivo DILI [1, 8]: -VE; Structural based (HCI), In vitro Assay (HepG2 cells [2]): +VE
4 | Nc1ccn([C@@H]2CS[C@H](CO)O2)c(=O)n1 [lamivudine] | +VE | +VE |  |  |  |  | Partition Hybrid HRM Score [5]: -VE; DILI severity category ([3]; in vivo): vLess-DILI-Concern
5 | CCN(CC)CCNC(=O)c1cc(Cl)c(N)cc1OC [metoclopramide] | +VE |  |  |  |  |  | DILI severity category ([3]; in vivo): vLess-DILI-Concern; Structural based (HCI) (HepG2 cells [2]): -VE
6 | Cc1c(O)cccc1C(=O)N[C@@H](CSc1ccccc1)[C@H](O)CN1C[C@H]2CCCC[C@H]2C[C@H]1C(=O)NC(C)(C)C [nelfinavir] |  | +VE | +VE | +VE | vLess-DILI-Concern | +VE | 
7 | CN1CCC[C@H]1c1cccnc1 [nicotine] |  |  |  |  |  |  | In vivo DILI ([1]; in vivo): -VE; Cluser analysis (HepG2 cells [6]): -VE; in vitro data EC20<=2uM [4]: -VE
8 | CCCN1C[C@H](CSC)C[C@@H]2c3cccc4[nH]cc(c34)C[C@H]21 [pergolide] |  |  |  | -VE | Ambiguous DILI-concern |  | In vivo DILI ([1]; ref Persson 2013): -VE; Cluser analysis (HepG2 cells [6]; [10]): -VE; Structural based (HCI) (HepG2 cells [6]; [10]): -VE
9 | CCC1(c2ccccc2)C(=O)NCNC1=O [primidone] | -VE |  |  |  |  |  | Structural based (HCI) (HepG2 cells [2]): +VE
10 | CCCc1cc(=O)[nH]c(=S)[nH]1 [propylthiouracil] | +VE | +VE |  |  |  |  | Cluser analysis (HepG2 cells [6]): -VE; Structural based (HCI) (HepG2 cells [6]): -VE; DILI severity category ([3]; in vivo): vMost-DILI-Concern
11 | CCCc1cc(=O)[nH]c(=S)[nH]1 [propythiouracil] |  |  |  |  |  |  | Structural based (HCI), In vitro Assay (HepG2 cells [2]): +VE
12 | CC(C)c1nc(CN(C)C(=O)N[C@H](C(=O)N[C@@H](Cc2ccccc2)C[C@H](O)[C@H](Cc2ccccc2)NC(=O)OCc2cncs2)C(C)C)cs1 [ritonavir] |  | +VE | +VE | +VE | vMost-DILI-Concern | +VE | In vivo DILI ([1]; ref Aleo 2019): +VE; In vivo DILI ([1]; ref Schadt 2015): +VE; Partition Hybrid HRM Score ([5]; In vitro Assay, ref Aleo 2019): +VE; Ro2 Hybrid HRM Score ([5]; In vitro Assay, ref Aleo 2019): +VE
13 | CC(C)(C)NC(=O)[C@@H]1C[C@@H]2CCCC[C@@H]2CN1C[C@@H](O)[C@H](Cc1ccccc1)NC(=O)[C@H](CC(N)=O)NC(=O)c1ccc2ccccc2n1 [saquinavir] |  | +VE | +VE | +VE | vLess-DILI-Concern | +VE | In vivo DILI ([1]; ref Schadt 2015): -VE
14 | CNC(=O)c1cc(Oc2ccc(NC(=O)Nc3ccc(Cl)c(C(F)(F)F)c3)cc2)ccn1 [sorafenib] |  | +VE | +VE | +VE | vMost-DILI-Concern | -VE | In vivo DILI ([1]; ref Aleo 2019): +VE; Partition Hybrid HRM Score ([5]; In vitro Assay, ref Aleo 2019): +VE; Ro2 Hybrid HRM Score ([5]; In vitro Assay, ref Aleo 2019): +VE
15 | CNS(=O)(=O)Cc1ccc2[nH]cc(CCN(C)C)c2c1 [sumatriptan] |  | -VE | -VE | -VE | Ambiguous DILI-concern | -VE | In vivo DILI ([1]; ref Xu 2008): -VE; Structural based (HCI) (human hepatocytes; In vitro Assay, ref Xu 2008): -VE
16 | COc1cccc(C2(O)CCCCC2CN(C)C)c1 (stereo not drawn) [tramadol] |  | -VE | +VE | -VE | Ambiguous DILI-concern | -VE | 
17 | CN[C@H](CC(C)C)C(=O)N[C@H]1C(=O)N[C@@H](CC(N)=O)C(=O)N[C@H]2C(=O)N[C@H]3C(=O)N[C@H](C(=O)N[C@H](C(=O)O)c4cc(O)cc(O)c4-c4cc3ccc4O)[C@H](O)c3ccc(c(Cl)c3)Oc3cc2cc(c3O[C@@H]2O[C@H](CO)[C@@H](O)[C@H](O)[C@H]2O[C@H]2C[C@](C)(N)[C@H](O)[C@H](C)O2)Oc2ccc(cc2Cl)[C@H]1O [vancomycin] | +VE |  |  |  |  |  | Cluser analysis (HepG2 cells [6]): -VE; Structural based (HCI) (human hepatocytes): +VE; Partition Hybrid HRM Score [5]: +VE; Ro2 Hybrid HRM Score [5]: -VE; DILI severity category ([3]; in vivo): vLess-DILI-Concern
18 | CC[C@]1(O)C[C@@H]2CN(CCc3c([nH]c4ccccc34)[C@@](C(=O)OC)(c3cc4c(cc3OC)N(C)[C@H]3[C@@](O)(C(=O)OC)[C@H](OC(C)=O)[C@]5(CC)C=CCN6CC[C@]43[C@@H]65)C2)C1 [vinblastine] |  | -VE |  |  |  |  | Cellular toxicity (3T3 cells) [7]: -VE; GSH adduct HML [7]: -VE; Hepatocyte cellular toxicity [7]: +VE; MitoTox 3T3 [7]: +VE; TDI CYP3A4 [7]: +VE; hBSEP inhibition [7]: +VE
